Measurements taken from US8217035B2, “Pyrimidine derivatives used as PI-3-kinase inhibitors” (Novartis AG, priority 2006, dated 2012).

Tested on: A2780 ovarian cancer cells
Experiment: Cellular proliferation in A2780 cells, Cell Titer Glo (Biological Method 4)
Type: cell-based
Details: Homo sapiens; ovarian cancer cell line A2780
Method in brief: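 A2780 cells seeded at 1,000/well in DMEM with 10% FBS, at least 2 h before compound, then exposed 72 h at 37 °C, 5% CO2. Viable cells measured by Cell Titer Glo luminescence; EC50 calculated from duplicate conditions.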

EC50 [nM] | SMILES
< 1000 | Nc1ncc(-c2cc(OC3CCOCC3)nc(N3CCOCC3)n2)c(=O)[nH]1 [Compound 50]
< 10000 | CS(=O)(=O)N1CCC[C@@H](Oc2cc(-c3cnc(N)nc3N)nc(N3CCOCC3)n2)C1 [Compound 127]
< 1000 | CC(=O)N1CCC[C@@H](Oc2cc(-c3cnc(N)nc3N)nc(N3CCOCC3)n2)C1 [Compound 29]
< 10000 | Nc1ccc(-c2cc(Nc3ccc(S(N)(=O)=O)cc3)nc(N3CCOCC3)n2)cn1 [Compound 190]
< 10000 | CN1CCC(Oc2ccc(Nc3cc(-c4cnc(N)cc4C(F)(F)F)nc(N4CCOCC4)n3)cn2)CC1 [Compound 116]
< 1000 | CS(=O)(=O)Nc1ncccc1-c1cc(-c2cnc(N)cc2Cl)nc(N2CCOCC2)n1 [Compound 170]
< 1000 | Cc1nc(N)ncc1-c1nc(N2CCOCC2)nc(Nc2cnc3ccccc3c2)c1C [Compound 185]
< 1000 | COC(=O)N1CCC(Oc2cc(-c3cnc(N)nc3C(F)(F)F)nc(N3CCOCC3)n2)CC1 [Compound 70]
< 10000 | CC(C)C(=O)N1CCC[C@@H](Oc2cc(-c3cnc(N)nc3N)nc(N3CCOCC3)n2)C1 [Compound 137]
< 1000 | Nc1ncc(-c2cc(N3CCOc4ccccc43)nc(N3CCOCC3)n2)cn1 [Compound 65]
< 10000 | CC(=O)c1cccc(Nc2cc(-c3ccc(N)nc3)nc(N3CCOCC3)n2)c1 [Compound 174]
< 1000 | Nc1ncc(-c2cc(Nc3ccc4ncccc4c3)nc(N3CCOCC3)n2)cn1 [Compound 46]
< 10000 | Nc1ccc(-c2cc(-c3cccnc3NCCO)nc(N3CCOCC3)n2)cn1 [Compound 104]
< 1000 | CCN(CC)Cc1cnc(Nc2cc(-c3cnc(N)nc3N)nc(N3CCOCC3)n2)s1 [Compound 59]
< 1000 | CN1CCN(c2ccc(Nc3cc(-c4cnc(N)nc4)nc(N4CCOCC4)n3)cn2)CC1 [Compound 51]
< 10000 | Cc1c(-c2ccc(Nc3ncc(-c4ccccc4)s3)nc2)nc(N2CCOCC2)nc1-c1cnc(N)nc1 [Compound 194]
< 10000 | COc1cccc2ncc(Nc3cc(-c4cnc(N)cc4C(F)(F)F)nc(N4CCOCC4)n3)cc12 [Compound 140]
< 10000 | Nc1ncc(-c2cc(OC3CCN(C(=O)OCc4ccccc4)CC3)nc(N3CCOCC3)n2)c(C(F)(F)F)n1 [Compound 176]
< 10000 | CS(=O)(=O)c1ccc(Nc2cc(-c3cnc(N)cc3C(F)(F)F)nc(N3CCOCC3)n2)cc1 [Compound 173]
< 1000 | Nc1ccc(-c2cc(Nc3cnc4ccccc4c3)nc(N3CCOCC3)n2)c(F)n1 [Compound 169]
< 10000 | Nc1ncc(-c2cc(O[C@H]3CCOC3)nc(N3CCOCC3)n2)c(N)n1 [Compound 101]

Molecular target: PI3 kinase alpha (Homo sapiens, UniProt P42336)
Sequence (P42336 whole entry): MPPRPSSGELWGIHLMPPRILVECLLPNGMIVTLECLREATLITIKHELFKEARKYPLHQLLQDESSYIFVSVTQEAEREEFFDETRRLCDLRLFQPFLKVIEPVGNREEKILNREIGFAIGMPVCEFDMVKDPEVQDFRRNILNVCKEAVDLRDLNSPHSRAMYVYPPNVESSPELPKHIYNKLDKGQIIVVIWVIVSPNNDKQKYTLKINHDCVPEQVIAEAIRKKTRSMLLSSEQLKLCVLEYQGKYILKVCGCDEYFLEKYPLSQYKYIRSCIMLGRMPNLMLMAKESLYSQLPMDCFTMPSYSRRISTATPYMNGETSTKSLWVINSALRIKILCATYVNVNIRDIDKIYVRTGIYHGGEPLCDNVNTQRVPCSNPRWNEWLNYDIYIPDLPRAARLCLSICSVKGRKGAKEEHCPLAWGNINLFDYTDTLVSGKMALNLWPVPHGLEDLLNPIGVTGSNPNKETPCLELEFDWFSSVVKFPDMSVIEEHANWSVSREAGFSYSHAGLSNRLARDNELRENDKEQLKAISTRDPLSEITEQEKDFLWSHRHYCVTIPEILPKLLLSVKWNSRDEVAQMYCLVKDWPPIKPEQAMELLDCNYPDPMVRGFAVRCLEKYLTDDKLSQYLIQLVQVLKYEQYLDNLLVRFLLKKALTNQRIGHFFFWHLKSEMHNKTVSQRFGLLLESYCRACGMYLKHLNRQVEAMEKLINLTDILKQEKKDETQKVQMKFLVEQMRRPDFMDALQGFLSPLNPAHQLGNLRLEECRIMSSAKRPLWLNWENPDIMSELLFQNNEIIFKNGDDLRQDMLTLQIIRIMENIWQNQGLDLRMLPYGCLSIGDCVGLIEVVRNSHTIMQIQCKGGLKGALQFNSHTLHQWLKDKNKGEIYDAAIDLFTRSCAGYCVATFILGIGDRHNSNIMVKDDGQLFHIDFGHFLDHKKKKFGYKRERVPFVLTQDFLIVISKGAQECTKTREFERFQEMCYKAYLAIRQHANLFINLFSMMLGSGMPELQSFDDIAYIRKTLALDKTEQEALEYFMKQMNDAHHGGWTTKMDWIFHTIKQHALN
Sequence (P27986 whole entry partner): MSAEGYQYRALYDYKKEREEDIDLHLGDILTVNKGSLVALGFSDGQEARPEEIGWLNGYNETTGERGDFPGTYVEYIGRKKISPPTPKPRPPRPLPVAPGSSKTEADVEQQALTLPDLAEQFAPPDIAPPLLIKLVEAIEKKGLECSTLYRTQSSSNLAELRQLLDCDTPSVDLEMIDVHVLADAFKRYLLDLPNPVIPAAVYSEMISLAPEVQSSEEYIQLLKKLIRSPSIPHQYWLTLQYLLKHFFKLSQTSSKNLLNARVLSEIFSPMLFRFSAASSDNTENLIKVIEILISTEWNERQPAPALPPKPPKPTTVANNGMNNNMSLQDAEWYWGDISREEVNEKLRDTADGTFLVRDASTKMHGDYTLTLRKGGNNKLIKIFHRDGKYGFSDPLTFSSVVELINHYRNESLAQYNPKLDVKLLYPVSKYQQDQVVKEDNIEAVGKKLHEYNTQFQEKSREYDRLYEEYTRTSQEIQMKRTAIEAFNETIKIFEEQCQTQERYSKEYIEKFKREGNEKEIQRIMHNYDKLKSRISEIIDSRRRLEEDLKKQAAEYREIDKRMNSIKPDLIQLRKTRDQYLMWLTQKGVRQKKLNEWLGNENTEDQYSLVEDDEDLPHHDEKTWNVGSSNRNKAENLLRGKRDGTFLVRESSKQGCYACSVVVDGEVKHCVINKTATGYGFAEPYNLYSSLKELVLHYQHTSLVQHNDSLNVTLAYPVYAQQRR
Experiment: PI3K ATP depletion assay (Biological Method 1, Assay 3; KinaseGlo luminescence)
Type: biochemical
Details: ATP depletion assay; read-out: PI3 Kinase Alpha, IC50
Method in brief: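 Compound in DMSO was mixed with 10 nM PI3 kinase and 5 μg/mL phosphatidylinositol, and the reaction was started with 2 μM ATP. It ran to about 50% ATP depletion and was stopped with KinaseGlo.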

IC50 [nM] | SMILES
< 1000 | Nc1ncc(-c2cc(OC3CCOCC3)nc(N3CCOCC3)n2)c(=O)[nH]1 [Compound 50]
< 1000 | CS(=O)(=O)N1CCC[C@@H](Oc2cc(-c3cnc(N)nc3N)nc(N3CCOCC3)n2)C1 [Compound 127]
< 1000 | CC(=O)N1CCC[C@@H](Oc2cc(-c3cnc(N)nc3N)nc(N3CCOCC3)n2)C1 [Compound 29]
< 1000 | Nc1ccc(-c2cc(Nc3ccc(S(N)(=O)=O)cc3)nc(N3CCOCC3)n2)cn1 [Compound 190]
< 1000 | CN1CCC(Oc2ccc(Nc3cc(-c4cnc(N)cc4C(F)(F)F)nc(N4CCOCC4)n3)cn2)CC1 [Compound 116]
< 1000 | CS(=O)(=O)Nc1ncccc1-c1cc(-c2cnc(N)cc2Cl)nc(N2CCOCC2)n1 [Compound 170]
< 1000 | Cc1nc(N)ncc1-c1nc(N2CCOCC2)nc(Nc2cnc3ccccc3c2)c1C [Compound 185]
< 1000 | COC(=O)N1CCC(Oc2cc(-c3cnc(N)nc3C(F)(F)F)nc(N3CCOCC3)n2)CC1 [Compound 70]
< 1000 | CC(C)C(=O)N1CCC[C@@H](Oc2cc(-c3cnc(N)nc3N)nc(N3CCOCC3)n2)C1 [Compound 137]
< 1000 | Nc1ncc(-c2cc(N3CCOc4ccccc43)nc(N3CCOCC3)n2)cn1 [Compound 65]
< 1000 | CC(=O)c1cccc(Nc2cc(-c3ccc(N)nc3)nc(N3CCOCC3)n2)c1 [Compound 174]
< 1000 | Nc1ncc(-c2cc(Nc3ccc4ncccc4c3)nc(N3CCOCC3)n2)cn1 [Compound 46]
< 1000 | Nc1ccc(-c2cc(-c3cccnc3NCCO)nc(N3CCOCC3)n2)cn1 [Compound 104]
< 1000 | CCN(CC)Cc1cnc(Nc2cc(-c3cnc(N)nc3N)nc(N3CCOCC3)n2)s1 [Compound 59]
< 1000 | CN1CCN(c2ccc(Nc3cc(-c4cnc(N)nc4)nc(N4CCOCC4)n3)cn2)CC1 [Compound 51]
< 1000 | Cc1c(-c2ccc(Nc3ncc(-c4ccccc4)s3)nc2)nc(N2CCOCC2)nc1-c1cnc(N)nc1 [Compound 194]
< 1000 | COc1cccc2ncc(Nc3cc(-c4cnc(N)cc4C(F)(F)F)nc(N4CCOCC4)n3)cc12 [Compound 140]
< 1000 | Nc1ncc(-c2cc(OC3CCN(C(=O)OCc4ccccc4)CC3)nc(N3CCOCC3)n2)c(C(F)(F)F)n1 [Compound 176]
< 1000 | CS(=O)(=O)c1ccc(Nc2cc(-c3cnc(N)cc3C(F)(F)F)nc(N3CCOCC3)n2)cc1 [Compound 173]
< 1000 | Nc1ccc(-c2cc(Nc3cnc4ccccc4c3)nc(N3CCOCC3)n2)c(F)n1 [Compound 169]
< 1000 | Nc1ncc(-c2cc(O[C@H]3CCOC3)nc(N3CCOCC3)n2)c(N)n1 [Compound 101]

Tested on: pSer473 Akt in A2780 cells
Experiment: pSer473 Akt assay to monitor PI3K pathway in A2780 cells (Biological Method 2, MSD)
Type: cell-based
Details: Homo sapiens; inhibition of Akt phosphorylation, A2780 cells
Protocol: In this method, an assay for measuring the PI3K-mediated pSer473-Akt status after treatment with representative inhibitor compounds of the invention is described.
A2780 cells were cultured in DMEM supplemented with 10% FBS. L-glutamine, sodium pyruvate, and antibiotics. Cells were plated in the same medium at a density of 15,000 cells per well into 96 well tissue culture plates, with outside wells vacant, and allowed to adhere overnight.
Test compounds supplied in DMSO were diluted further into DMSO at 500 times the desired final concentrations before dilution into culture media to 2 times the final concentrations. Equal volumes of 2× compounds were added to the cells in 96 well plates and incubated at 37° C. for one hour. The media and compounds were then removed, the plates chilled and cells lysed in a lysis buffer (150 mM NaCl, 20 mM Tris pH 7.5, 1 mM EDTA, 1 mM EGTA, 1% Triton X-100) supplemented with phosphatase and protease inhibitors. After thorough mixing, lysates were transferred to both pSer473Akt and total Akt assay plates from Meso Scale Discovery (MSD), and incubated overnight with shaking at 4° C.
The assays were read on a SECTOR Imager 6000 instrument (Meso Scale Discovery). Ratios of the signal from pSer473Akt and total Akt assays were used to correct for any variability and the percent inhibition of pSer473Akt from the total signal seen in cells treated with compound versus DMSO alone was calculated and used to determine EC50 values for each compound.

EC50 [nM] | SMILES
< 1000 | Nc1ncc(-c2cc(OC3CCOCC3)nc(N3CCOCC3)n2)c(=O)[nH]1 [Compound 50]
< 1000 | CS(=O)(=O)N1CCC[C@@H](Oc2cc(-c3cnc(N)nc3N)nc(N3CCOCC3)n2)C1 [Compound 127]
< 1000 | CC(=O)N1CCC[C@@H](Oc2cc(-c3cnc(N)nc3N)nc(N3CCOCC3)n2)C1 [Compound 29]
< 1000 | Nc1ccc(-c2cc(Nc3ccc(S(N)(=O)=O)cc3)nc(N3CCOCC3)n2)cn1 [Compound 190]
< 1000 | CN1CCC(Oc2ccc(Nc3cc(-c4cnc(N)cc4C(F)(F)F)nc(N4CCOCC4)n3)cn2)CC1 [Compound 116]
< 1000 | CS(=O)(=O)Nc1ncccc1-c1cc(-c2cnc(N)cc2Cl)nc(N2CCOCC2)n1 [Compound 170]
< 1000 | Cc1nc(N)ncc1-c1nc(N2CCOCC2)nc(Nc2cnc3ccccc3c2)c1C [Compound 185]
< 1000 | COC(=O)N1CCC(Oc2cc(-c3cnc(N)nc3C(F)(F)F)nc(N3CCOCC3)n2)CC1 [Compound 70]
< 1000 | CC(C)C(=O)N1CCC[C@@H](Oc2cc(-c3cnc(N)nc3N)nc(N3CCOCC3)n2)C1 [Compound 137]
< 1000 | Nc1ncc(-c2cc(N3CCOc4ccccc43)nc(N3CCOCC3)n2)cn1 [Compound 65]
< 1000 | CC(=O)c1cccc(Nc2cc(-c3ccc(N)nc3)nc(N3CCOCC3)n2)c1 [Compound 174]
< 1000 | Nc1ncc(-c2cc(Nc3ccc4ncccc4c3)nc(N3CCOCC3)n2)cn1 [Compound 46]
< 1000 | Nc1ccc(-c2cc(-c3cccnc3NCCO)nc(N3CCOCC3)n2)cn1 [Compound 104]
< 1000 | CCN(CC)Cc1cnc(Nc2cc(-c3cnc(N)nc3N)nc(N3CCOCC3)n2)s1 [Compound 59]
< 1000 | CN1CCN(c2ccc(Nc3cc(-c4cnc(N)nc4)nc(N4CCOCC4)n3)cn2)CC1 [Compound 51]
< 1000 | Cc1c(-c2ccc(Nc3ncc(-c4ccccc4)s3)nc2)nc(N2CCOCC2)nc1-c1cnc(N)nc1 [Compound 194]
< 1000 | COc1cccc2ncc(Nc3cc(-c4cnc(N)cc4C(F)(F)F)nc(N4CCOCC4)n3)cc12 [Compound 140]
< 1000 | Nc1ncc(-c2cc(OC3CCN(C(=O)OCc4ccccc4)CC3)nc(N3CCOCC3)n2)c(C(F)(F)F)n1 [Compound 176]
< 1000 | CS(=O)(=O)c1ccc(Nc2cc(-c3cnc(N)cc3C(F)(F)F)nc(N3CCOCC3)n2)cc1 [Compound 173]
< 1000 | Nc1ccc(-c2cc(Nc3cnc4ccccc4c3)nc(N3CCOCC3)n2)c(F)n1 [Compound 169]
< 1000 | Nc1ncc(-c2cc(O[C@H]3CCOC3)nc(N3CCOCC3)n2)c(N)n1 [Compound 101]
